Assay results: patent US10987317B2, “Inhibition of glutaminase C” (Cornell University, priority 2009, dated 2021)

Key:
[1] = biological target: T1, E. coli-expressed mouse ortholog of human GAC (Mus musculus, UniProt D3Z7P3); experiment: Recombinant glutaminase activity assay; assay type: biochemical
T1 construct: A plasmid encoding mouse GAC (residues 128-603) was cloned into the pET28a vector; His-tag (N, cleaved yes); made in house; host or cells: E. coli (pET28a)
T1 sequence (D3Z7P3 128-603 isoform D3Z7P3-2): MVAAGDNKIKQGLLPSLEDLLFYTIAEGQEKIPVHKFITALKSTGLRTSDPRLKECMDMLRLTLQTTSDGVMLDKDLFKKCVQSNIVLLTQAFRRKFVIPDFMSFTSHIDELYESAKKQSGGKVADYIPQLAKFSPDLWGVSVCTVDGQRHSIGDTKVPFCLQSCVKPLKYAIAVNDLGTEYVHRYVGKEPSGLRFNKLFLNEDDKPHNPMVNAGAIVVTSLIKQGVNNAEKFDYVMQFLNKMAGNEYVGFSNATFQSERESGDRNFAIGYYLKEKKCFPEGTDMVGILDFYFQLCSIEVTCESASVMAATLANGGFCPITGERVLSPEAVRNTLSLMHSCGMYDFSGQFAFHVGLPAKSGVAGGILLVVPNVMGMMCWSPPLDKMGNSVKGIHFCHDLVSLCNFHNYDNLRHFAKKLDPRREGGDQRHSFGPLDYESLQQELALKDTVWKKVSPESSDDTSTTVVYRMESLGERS
Method: (§1) 100%=620 moles of glutamine hydrolyzed per minute per mole of enzyme. Data represent the average of 3 experiments (±s.d.). […] Following precipitation of the beads and re-suspension, the samples are analyzed by Western blotting with anti-V5 antibody. […] Data represent the average of 3 experiments (±s.d.). […] Data represent the average of 3 experiments (±s.d.). […] Data represent the average of 3 experiments (±s.d.). FIG. 3E NIH 3T3 cells transiently expressing Dbl are assayed for focus formation in the presence of 10 μM 968 alone or together with […] dimethyl α-ketoglutarate. […] 100%=680 nM glutamine hydrolyzed per minute per 10^5 cells. Data are the average of 3 experiments (=s.d.). […] 100%=750 nM glutamine hydrolyzed per minute per 10^5 cells. Data represent the average of 3 experiments (±s.d.).
The activity of the E. coli-expressed recombinant mouse ortholog of human GAC are assayed in the presence of 0 (●), 10 (∇) or 20 (▪) μM 968 and inorganic phosphate in the form of dipotassium hydrogen phosphate. […] The data are plotted as GA activity as function of varying concentrations of glutamine or inorganic phosphate. The data are the average of 3 experiments and are plotted as mean±SEM.
Glutaminase activity assays were performed on recombinant enzyme as previously described (Kenny et al., “Bacterial Expression, Purification and Characterization of Rat Kidney-Type Mitochondrial Glutaminasc,” Protein Expr. Purif 31:140-148 (2003), which is hereby incorporated by reference in its entirety). A plasmid encoding mouse GAC (residues 128-603) was cloned into the pET28a vector and the protein was expressed with an N-terminal histidine (His)-tag. The tag was cleaved using thrombin and the protein was further purified by anion-exchange and gel-filtration chromatography. […] The reaction mixture was incubated at room temperature for 45 minutes and the absorbance at 340 nm was recorded for each sample against a water blank. The absorbance of the sample with just the cocktail mixture was subtracted from each reading to calculate the activity of the enzyme.

[2] = system: NIH 3T3 cells stably expressing Cdc42(F28L), Rac(F28L), RhoC(F30L); experiment: Transforming activity of constitutively active Rho GTPase mutants; assay type: cell-based; conditions: 10 μM
Method: (§2) FIGS. 2A-G illustrate effects of 968 on the transforming activity of constitutively active Rho GTPases and human breast cancer cells. […] Cells are scored after 14 days and plotted as the percentage of the total number of colonies greater than […] in diameter. Data represent the average of 3 experiments (±s.d.). […] Data represent the average of 3 experiments (±s.d.). […] Data represent the average of 3 experiments (±s.d.). […] After 24 hours at 37° C. the migratory cells are fixed, stained with GIEMSA, and counted. Data represent the average of 3 experiments (±s.d.). […] Data represent the average of 3 experiments (±s.d.). […] Data represent the average of 3 experiments (±s.d.). […] Data represent the average of 3 experiments (±s.d.).

[3] = system: MDA-MB231 cells; experiment: Breast cancer cell soft agar colony formation and growth; assay type: cell-based, human; conditions: 10 μM
Method: as §2

[4] = system: SKBR3 cells; experiment: as above; assay type: cell-based, human
Method: as §2, §1

## CN(C)c1ccc(C2Nc3ccc4ccccc4c3C3=C2C(=O)CC(C)(C)C3)cc1Br (centres unmarked) [Compound 968, 5-[3-bromo-4-(dimethylamino)phenyl]-2,2-dimethyl-2,3,5,6-tetrahydrobenzo[a]]
[1]
  inhibition of enzymatic activity of purified GAC: inhibits
[1]; 0, 10 or 20 μM
  mode of inhibition versus glutamine and inorganic phosphate: neither competitive versus substrate (glutamine) nor inorganic phosphate
[2]
  colony formation in soft-agar: blocking
[2]; 1% calf serum
  growth under low serum conditions: blocking
[2]; 10% calf serum, 6 days
  growth to high density: blocking
[2]; Matri-gel, 24 hours
  invasive activity: inhibiting
[3]
  colony formation in soft agar: inhibits
  growth to high density and in low serum: inhibits
[4]; 10 μM
  colony formation in soft agar: inhibits
  growth to high density and in low serum: inhibits
[4]; growth in low serum, 10 μM 968 with 7 μM dimethyl α-ketoglutarate
  reversal of 968-inhibition by cell-permeable analog of α-ketoglutarate: circumvented
